Laboratory results reported in article PMC6742641, “Design, synthesis and biological evaluation of a series of CNS penetrant HDAC inhibitors structurally derived from amyloid-β probes” (Scientific Reports, 2019).
“Also recorded” adds a separate entry of the source. Where two headings read alike, the source gives them in different places.

Tests used:
[1] = PAMPA-BBB assay; type: in vitro ADME
Description: BBB-PAMPA was conducted by manufacturer’s instruction (pION Inc, MA, USA). […] Transmembrane side to donor part was coated with BBB lipid solution and add 200 μL acceptor buffer in upper part of PAMPA sandwich plate.

[2] = In vivo brain pharmacokinetic study; details: ICR male mice, IV, 2 mg/kg
Description: The study was approved by the Institutional Animal Care and Use of Committee of Daegu-Gyeongbuk Medical Innovation Foundation (DGMIF) and performed in accordance with protocols approved by the Institutional Animal Care and Use of Committee. […] Brain and plasma samples were collected at 0.5 and 1 h time points. Brain samples were homogenized at a 1:4 ratio of sample weight (g) to PBS volume (mL). Aliquots (20 μL) of brain homogenate were mixed with 180 μL of acetonitrile, vortexed and centrifuged at 15,000 rpm for 5 minutes at 4 °C. The resulting supernatants were used for LC-MS/MS analysis. Mice plasma samples were collected at 0.5 and 1 h time points. 180 μL of acetonitrile was added to 20 μL of plasma samples, vortexed and centrifuged at 15,000 rpm for 5 minutes at 4 °C.

[3] = target: T1, HDAC6 (Homo sapiens, UniProt Q9UBN7); assay: HDAC activity assay (fluorimetric, BPS Biosciences); type: biochemical; details: class IIb in Table 4; mean ± SD (n = 2)
T1 construct: purchased BPS Biosciences
T1 sequence (Q9UBN7 1-1215): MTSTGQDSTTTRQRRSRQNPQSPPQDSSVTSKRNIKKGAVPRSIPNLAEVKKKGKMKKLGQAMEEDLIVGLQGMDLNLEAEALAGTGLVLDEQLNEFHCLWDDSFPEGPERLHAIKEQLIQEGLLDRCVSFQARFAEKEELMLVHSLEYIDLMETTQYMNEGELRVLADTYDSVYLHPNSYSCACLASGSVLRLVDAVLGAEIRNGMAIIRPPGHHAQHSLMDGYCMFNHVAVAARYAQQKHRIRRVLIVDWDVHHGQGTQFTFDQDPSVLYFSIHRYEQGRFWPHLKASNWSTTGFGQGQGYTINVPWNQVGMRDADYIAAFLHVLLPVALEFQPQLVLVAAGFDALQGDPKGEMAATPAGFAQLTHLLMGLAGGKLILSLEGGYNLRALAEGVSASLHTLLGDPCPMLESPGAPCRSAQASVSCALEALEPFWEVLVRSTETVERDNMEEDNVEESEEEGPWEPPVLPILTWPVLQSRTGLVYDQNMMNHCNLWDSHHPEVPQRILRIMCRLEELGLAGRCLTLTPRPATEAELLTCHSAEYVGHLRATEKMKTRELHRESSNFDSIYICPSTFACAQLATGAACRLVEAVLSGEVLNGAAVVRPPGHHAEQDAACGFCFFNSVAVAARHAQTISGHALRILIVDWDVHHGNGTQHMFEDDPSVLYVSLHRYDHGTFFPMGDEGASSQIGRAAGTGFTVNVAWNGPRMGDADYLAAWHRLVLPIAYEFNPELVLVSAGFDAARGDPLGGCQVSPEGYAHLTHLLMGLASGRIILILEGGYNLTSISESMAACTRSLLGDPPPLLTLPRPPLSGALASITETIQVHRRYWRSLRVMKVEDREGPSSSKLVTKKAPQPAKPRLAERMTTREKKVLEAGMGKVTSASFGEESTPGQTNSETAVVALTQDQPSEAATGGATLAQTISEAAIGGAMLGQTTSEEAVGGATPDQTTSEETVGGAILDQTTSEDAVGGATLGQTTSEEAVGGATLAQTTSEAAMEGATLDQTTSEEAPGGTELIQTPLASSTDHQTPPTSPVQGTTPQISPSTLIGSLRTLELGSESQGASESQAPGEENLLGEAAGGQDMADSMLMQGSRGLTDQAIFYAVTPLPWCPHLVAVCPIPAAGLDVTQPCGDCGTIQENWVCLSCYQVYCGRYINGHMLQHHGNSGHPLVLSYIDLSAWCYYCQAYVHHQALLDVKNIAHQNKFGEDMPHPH
Description: HDAC1, 3, 6 and 7 activity assays were performed according to the manufacturer’s protocol (BPS Biosciences). […] The HDAC assay developer was added to the mixture and incubated the plate at rt for 15 min. The fluorescence intensity was measured using a Tecan Infinite F200 Pro plate reader.

[4] = test system: Ac-Histone H3; assay: Western blot of acetylation status in SH-SY5Y cells; type: cell-based, human; details: 24 h, 0.5 to 5 μM
Description: (§1) Cells were seeded in 100 mm culture dishes (1 × 10^6 cells/dish), and allowed to attach overnight. Inhibitors were added at the concentrations as indicated and the cells were incubated for an additional 24 hours. For comparison, cells were also incubated with DMSO (0.5%) for 24 hours. Cells were harvested in ice-cold lysis buffer (23 mM Tris-HCl pH 7.6, 130 mM NaCl, 1% NP-40, 1% sodium deoxycholate, 0.1% SDS), and 30 µg of lysate per lane was separated by SDS-PAGE and followed by transferring to a PVDF membrane (Bio-Rad). The membrane was blocked with 5% skim milk in TBST, and then incubated with the corresponding antibody (Ac-α-tubulin, α-tubulin, Ac-Histone H3, Histone H3 or β-actin). After binding of an appropriate secondary antibody coupled to horseradish peroxidase, proteins were visualized by ECL chemiluminescence according to the instructions of the manufacturer (GE healthcare, USA).

[5] = test system: Ac-α-tubulin; assay: as above; type: cell-based, human; details: 24 h, 0.5 to 5 μM
Description: as §1

[6] = test system: SH-SY5Y cells; assay: Soft agar colony formation assay; type: cell-based, human; details: 3 weeks, 3 μM
Description: Cells (10^4 cells/well) were seeded in 6 well plate with 1.2% agar. After 12 h incubation, cells were treated with the indicated concentrations of compound 9b or DMSO at 37 °C in 5% humidified CO2 for 3 weeks with continuously changing medium every week. After medium was thrown away, colonies were stained with 0.05% crystal violet for 10 min.

O=C(NO)c1ccc(-c2nc3ccccc3s2)cc1 [Compound 9b]
Pe (10^−6 cm/s) ([1]; 25 μM, pH 7.4, 4 h, 25 °C, mean ± SD, three independent experiments): 27.15 10^−6 cm/s
CNS +/− classification ([1]; PAMPA-BBB): CNS + (CNS + indicates (Pe > 10))
Papp at 4 h, 25 μM ([1]; PAMPA, 25 μM, pH 7.4, 4 h, 25 °C, mean ± SD, three independent experiments, read-out: Pe): 27.1 ± 1.59 ×10⁻⁶ cm/s
Brain concentration (ng/mL) 0.5 h ([2]; 0.5 h, n = 4): 414.6 ± 88.7 ng/mL
Brain concentration (ng/mL) 1 h ([2]; 1 h, n = 4): 52.9 ± 1.6 ng/mL
Kp at 0.5 h ([2]; mouse, brain/plasma, 0.5 h, read-out: Brain/plasma ratio 0.5 h): 9
Kp at 1 h ([2]; mouse, brain/plasma, 1 h, read-out: Brain/plasma ratio 1 h): 7.2
concentration at 0.5 h ([2]; mouse, brain, 0.5 h, n = 4, read-out: Brain concentration (ng/mL) 0.5 h): 415 ng/mL
concentration at 1 h ([2]; mouse, brain, 1 h, n = 4, read-out: Brain concentration (ng/mL) 1 h): 52.9 ng/mL
concentration at 0.5 h ([2]; mouse, plasma, 0.5 h, n = 4, read-out: Plasma concentration (ng/mL) 0.5 h): 46 ± 13.9 ng/mL
concentration at 1 h ([2]; mouse, plasma, 1 h, n = 4, read-out: Plasma concentration (ng/mL) 1 h): 7.3 ± 1 ng/mL
IC50 [3]: 95.9 ± 0.78 nM
acetylation status of Histone H3 [4]: more efficiently promoted the acetylation of Histone H3 and α-tubulin than compound 9a; also recorded: significantly induced the accumulation of acetylated Histone H3
acetylation status of α-tubulin [5]: more efficiently promoted the acetylation of Histone H3 and α-tubulin than compound 9a; also recorded: dose-dependently increased
anchorage-independent cell growth (colony formation) [6]: almost completely inhibited
